Experimental data reported in PubChem BioAssay AID1918931 (Molecular Pharmacology Branch, DTP, NCI, 2023).
pIC50: −log10 of the molar value. Values joined by “and” are separate entries in the source; they are usually repeats but may differ in a detail not shown here. Equal entries are not always repeated.

Tested on: 138582-337-R-J1-PDC complex spheroid viability
Experiment: Anticancer human tumor 138582-337-R-J1-PDC patient-derived Merkel cell tumor cell line growth inhibition
Conditions: for viability, T/C: stronger effect = lower value; active means viability on the fitted dose curve at most 10% of control; inactive means the rest
Outline: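 Multicellular complex spheroids of tumor cells with human endothelial cells (HUVEC) and mesenchymal stem cells; the LSD1 inhibitor iadademstat was combined with standard-of-care or investigational agents. Top concentration at or near clinical Cmax, half-log dilutions; final DMSO ≤0.25%.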

[1] = curve of first compound, second compound 0.1 µM
[2] = curve of first compound, second compound 0.316 µM
[3] = curve of first compound, second compound 1 µM
[4] = curve of first compound, second compound 3.16 µM
[5] = curve of first compound, second compound 10 µM
[6] = second compound 0.1 µM, first compound 0.0316 µM
[7] = second compound 0.1 µM, first compound 0.1 µM
[8] = second compound 0.1 µM, first compound 0.316 µM
[9] = second compound 0.1 µM, first compound 1 µM
[10] = second compound 0.1 µM, first compound 3.16 µM
[11] = second compound 0.1 µM, first compound 10 µM
[12] = second compound 0.316 µM, first compound 0.0316 µM
[13] = second compound 0.316 µM, first compound 0.1 µM
[14] = second compound 0.316 µM, first compound 0.316 µM
[15] = second compound 0.316 µM, first compound 1 µM
[16] = second compound 0.316 µM, first compound 3.16 µM
[17] = second compound 0.316 µM, first compound 10 µM
[18] = second compound 1 µM, first compound 0.0316 µM
[19] = second compound 1 µM, first compound 0.1 µM
[20] = second compound 1 µM, first compound 0.316 µM
[21] = second compound 1 µM, first compound 1 µM
[22] = second compound 1 µM, first compound 3.16 µM
[23] = second compound 1 µM, first compound 10 µM
[24] = second compound 3.16 µM, first compound 0.0316 µM
[25] = second compound 3.16 µM, first compound 0.1 µM
[26] = second compound 3.16 µM, first compound 0.316 µM
[27] = second compound 3.16 µM, first compound 1 µM
[28] = second compound 3.16 µM, first compound 3.16 µM
[29] = second compound 3.16 µM, first compound 10 µM
[30] = second compound 10 µM, first compound 0.0316 µM
[31] = second compound 10 µM, first compound 0.1 µM
[32] = second compound 10 µM, first compound 0.316 µM
[33] = second compound 10 µM, first compound 1 µM
[34] = second compound 10 µM, first compound 3.16 µM
[35] = second compound 10 µM, first compound 10 µM
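Further: spheroids exposed to agents for 7 days.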
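Wherever viability, T/C is given: 100% = DMSO vehicle control viability.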

CC1COCCN1c1cc(C2(S(C)(=N)=O)CC2)nc(-c2ccnc3[nH]ccc23)n1 (configuration not stated) + NC1CCC(NC2CC2c2ccccc2)CC1
5.65: pIC50 [5]
inactive: viability, T/C [6] 107% | viability, T/C [7] 91.1% | viability, T/C [8] 83.2% | viability, T/C [9] 89.1% | viability, T/C [10] 63.4% | viability, T/C [11] 49.4% | viability, T/C [12] 105% | viability, T/C [13] 99% | viability, T/C [14] 86.9% | viability, T/C [15] 83% | viability, T/C [16] 64.1% | viability, T/C [17] 52.9% | viability, T/C [18] 88.1% | viability, T/C [19] 93.4% | viability, T/C [20] 100% | viability, T/C [21] 65.3% | viability, T/C [22] 59.8% | viability, T/C [23] 60.9% | viability, T/C [24] 92.6% | viability, T/C [25] 93.2% | viability, T/C [26] 98% | viability, T/C [27] 78.2% | viability, T/C [28] 63.1% | viability, T/C [29] 49.5% | viability, T/C [30] 87.3% | viability, T/C [31] 88.1% | viability, T/C [32] 71% | viability, T/C [33] 62.1% | viability, T/C [34] 46.1% | viability, T/C [35] 21.3%
< 5.00: pIC50 [1] | pIC50 [2] | pIC50 [3] | pIC50 [4]

CC[C@@]1(O)C(=O)OCc2c1cc1n(c2=O)Cc2cc3c(CN(C)C)c(O)ccc3nc2-1
inactive: viability, T/C (compound 0.000316 µM) 91% and 92.2% | viability, T/C (compound 0.001 µM) 103% and 101% | viability, T/C (compound 0.00316 µM) 77.7% and 62.7% | viability, T/C (compound 0.01 µM) 83.7% and 57.4% | viability, T/C (compound 0.0316 µM) 95% and 57.3% | viability, T/C (compound 0.1 µM) 85.6% and 47.7%
< 7.00: pIC50 (curve of compound)

COc1ccc([C@@H](O)c2cc(-c3ncnc4cc(N5CCOCC5)ccc34)c(F)cc2Cl)nn1 + NC1CC1c1ccc(-c2cccc(O)c2)cc1
inactive: viability, T/C [6] 73.2% | viability, T/C [7] 60.4% | viability, T/C [8] 57% | viability, T/C [9] 45.5% | viability, T/C [10] 38.2% | viability, T/C [11] 24.6% | viability, T/C [12] 67% | viability, T/C [13] 72.2% | viability, T/C [14] 66.1% | viability, T/C [15] 58.3% | viability, T/C [16] 49.2% | viability, T/C [17] 28.5% | viability, T/C [18] 77.2% | viability, T/C [19] 73.5% | viability, T/C [20] 61% | viability, T/C [21] 61.6% | viability, T/C [22] 44.7% | viability, T/C [23] 25.1% | viability, T/C [24] 68.3% | viability, T/C [25] 79.5% | viability, T/C [26] 65.4% | viability, T/C [27] 58.8% | viability, T/C [28] 46.4% | viability, T/C [29] 26% | viability, T/C [30] 99.8% | viability, T/C [31] 90.6% | viability, T/C [32] 77% | viability, T/C [33] 63.9% | viability, T/C [34] 48.1% | viability, T/C [35] 25.3%
5.60: pIC50 [5]
5.57: pIC50 [2]
6.21: pIC50 [1]
5.70: pIC50 [3]
5.66: pIC50 [4]

NS(=O)(=O)OCC1CC(n2ccc3c(NC4CCc5ccccc54)ncnc32)CC1O (configuration not stated) + NC1CCC(NC2CC2c2ccccc2)CC1
6.18: pIC50 [2]
6.09: pIC50 [5]
6.21: pIC50 [1]
6.20: pIC50 [3]
6.33: pIC50 [4]
inactive: viability, T/C (second compound 0.1 µM, first compound 0.00949 µM) 98.5% | viability, T/C (second compound 0.1 µM, first compound 0.03 µM) 114% | viability, T/C (second compound 0.1 µM, first compound 0.0949 µM) 92.1% | viability, T/C (second compound 0.1 µM, first compound 0.3 µM) 67.2% | viability, T/C (second compound 0.1 µM, first compound 0.949 µM) 40.5% | viability, T/C (second compound 0.1 µM, first compound 3 µM) 33.1% | viability, T/C (second compound 0.316 µM, first compound 0.00949 µM) 112% | viability, T/C (second compound 0.316 µM, first compound 0.03 µM) 96.2% | viability, T/C (second compound 0.316 µM, first compound 0.0949 µM) 84.2% | viability, T/C (second compound 0.316 µM, first compound 0.3 µM) 67.3% | viability, T/C (second compound 0.316 µM, first compound 0.949 µM) 37.4% | viability, T/C (second compound 0.316 µM, first compound 3 µM) 37% | viability, T/C (second compound 1 µM, first compound 0.00949 µM) 106% | viability, T/C (second compound 1 µM, first compound 0.03 µM) 107% | viability, T/C (second compound 1 µM, first compound 0.0949 µM) 85.5% | viability, T/C (second compound 1 µM, first compound 0.3 µM) 72.4% | viability, T/C (second compound 1 µM, first compound 0.949 µM) 35.3% | viability, T/C (second compound 1 µM, first compound 3 µM) 32.2% | viability, T/C (second compound 3.16 µM, first compound 0.00949 µM) 101% | viability, T/C (second compound 3.16 µM, first compound 0.03 µM) 119% | viability, T/C (second compound 3.16 µM, first compound 0.0949 µM) 90.1% | viability, T/C (second compound 3.16 µM, first compound 0.3 µM) 64.3% | viability, T/C (second compound 3.16 µM, first compound 0.949 µM) 29.8% | viability, T/C (second compound 3.16 µM, first compound 3 µM) 22.2% | viability, T/C (second compound 10 µM, first compound 0.00949 µM) 107% | viability, T/C (second compound 10 µM, first compound 0.03 µM) 107% | viability, T/C (second compound 10 µM, first compound 0.0949 µM) 92.8% | viability, T/C (second compound 10 µM, first compound 0.3 µM) 79.5% | viability, T/C (second compound 10 µM, first compound 0.949 µM) 44.4% | viability, T/C (second compound 10 µM, first compound 3 µM) 26%

COc1ccc([C@@H](O)c2cc(-c3ncnc4cc(N5CCOCC5)ccc34)c(F)cc2Cl)nn1 + NC1CCC(NC2CC2c2ccccc2)CC1
5.81: pIC50 [1]
inactive: viability, T/C [6] 80.6% | viability, T/C [7] 96.2% | viability, T/C [8] 76.5% | viability, T/C [9] 54.6% | viability, T/C [10] 44.9% | viability, T/C [11] 32.9% | viability, T/C [12] 76.4% | viability, T/C [13] 77.3% | viability, T/C [14] 62.6% | viability, T/C [15] 63.1% | viability, T/C [16] 46.8% | viability, T/C [17] 33.3% | viability, T/C [18] 83.1% | viability, T/C [19] 74.5% | viability, T/C [20] 71.7% | viability, T/C [21] 50.3% | viability, T/C [22] 44.7% | viability, T/C [23] 33.7% | viability, T/C [24] 81.1% | viability, T/C [25] 90.1% | viability, T/C [26] 69.1% | viability, T/C [27] 61.2% | viability, T/C [28] 40.7% | viability, T/C [29] 24.2% | viability, T/C [30] 87.2% | viability, T/C [31] 72.5% | viability, T/C [32] 75.9% | viability, T/C [33] 47.1% | viability, T/C [34] 43.4% | viability, T/C [35] 14.2%
5.83: pIC50 [3]
5.74: pIC50 [4]
5.59: pIC50 [2]
5.85: pIC50 [5]
